# Legend:
# wheat = assay: Test B postemergence herbicide test; assay type: in vivo, Triticum aestivum; set-up: key to Wheat plant response rating: 0 = no effect, 100 = complete control; details: postemergence
# In short: (§1)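 Treated at 2-leaf (paddy) or 1–4-leaf, 2–18 cm (postemergence); greenhouse 13–15 d; visual score vs control, 0 none to 100 complete control; dash = not tested.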
# giant foxtail = assay: Test B pre-/postemergence herbicide test; assay type: in vivo, Setaria faberi; details: for Foxtail, Giant plant response rating (0 to 100 scale) / Plant response rating, Foxtail, Giant: 0 = no effect, 100 = complete control, preemergence; for Foxtail, Giant plant response rating: postemergence
# In short: (§2)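 Response was scored visually 13 to 15 days after treatment against untreated greenhouse controls, 0 meaning no effect and 100 complete control. Formulations (solvent mixture plus surfactant) went onto soil after planting, onto foliage of 1- to 4-leaf plants, and onto 2-leaf plants in a flooded paddy set including rice and barnyardgrass.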
# Surinam grass = assay: Test B pre-/postemergence herbicide test; assay type: in vivo, Urochloa decumbens; details: for Surinam Grass plant response rating (0 to 100 scale) / Plant response rating, Surinam Grass: 0 = no effect, 100 = complete control, preemergence; for Surinam Grass plant response rating: postemergence
# In short: as §2
# barnyardgrass [1] = assay: Test B pre-/postemergence herbicide test; assay type: in vivo, Echinochloa crus-galli; details: for Barnyardgrass plant response rating (0 to 100 scale) / Plant response rating, Barnyardgrass: 0 = no effect, 100 = complete control, preemergence; for Plant response rating, Barnyardgrass / Barnyardgrass plant response rating: visual rating; for Barnyardgrass plant response rating: postemergence, scale 0 (no effect) to 100 (complete control)
# In short: (§3)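 Flooded paddy rice and barnyardgrass were treated at the 2-leaf stage; upland plantings received compound either on sown seed or on 1- to 4-leaf seedlings. All were kept 13–15 days in a greenhouse and scored visually, 0–100, relative to untreated plants.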
# rice [2] = assay: Test B pre-/postemergence herbicide test; assay type: in vivo, Oryza sativa; details: 0 = no effect, 100 = complete control, preemergence; for Rice plant response rating (0 to 100 scale): 125 g ai/ha; for Plant response rating, Rice: 500 g ai/ha, visual rating
# In short: as §2
# corn = assay: Test B pre-/postemergence herbicide test; assay type: in vivo, Zea mays; details: for Corn plant response rating (0 to 100 scale) / Plant response rating, Corn: 0 = no effect, 100 = complete control, preemergence; for Corn plant response rating: postemergence
# In short: as §2
# pigweed = assay: Test B pre-/postemergence herbicide test; assay type: in vivo, Amaranthus retroflexus; details: for Pigweed plant response rating (0 to 100 scale) / Plant response rating, Pigweed: 0 = no effect, 100 = complete control, preemergence; for Pigweed plant response rating: postemergence
# In short: as §2
# rice [3] = assay: Test B flooded paddy test; assay type: in vivo, Oryza sativa; details: 1000 g ai/ha, scale 0 to 100 (0 no effect, 100 complete control)
# In short: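 Postemergence plants were sprayed with formulated test chemicals at 2 to 18 cm height (1- to 4-leaf stage); paddy species were grown to the 2-leaf stage. After 13 to 15 days in a greenhouse, injury was rated visually against untreated controls on a 0–100 scale (0 = no effect, 100 = complete control).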
# wild oat = assay: Test B postemergence herbicide test; assay type: in vivo, Avena fatua; details: postemergence
# In short: as §1
# ducksalad = assay: Test B flooded paddy test; assay type: in vivo, Heteranthera limosa; details: 1000 g ai/ha, scale 0 to 100 (0 no effect, 100 complete control)
# In short: (§4)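 After treating 2-leaf paddy plants or 2–18 cm postemergence plants (1 to 4 leaves) with formulated chemical, researchers kept them in a greenhouse for 13–15 days. Effects were judged visually versus controls: 0 indicates none, 100 total control.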
# blackgrass = assay: Test B postemergence herbicide test; assay type: in vivo, Alopecurus myosuroides; details: postemergence, visual rating, scale 0 (no effect) to 100 (complete control)
# In short: as §4
# barnyardgrass [4] = assay: Test B flooded paddy test; assay type: in vivo, Echinochloa crus-galli; details: 1000 g ai/ha, scale 0 to 100 (0 no effect, 100 complete control)
# In short: as §4
# [5] = test system: small flower umbrella sedge; assay: Test B flooded paddy test; assay type: in vivo, Cyperus difformis; details: 1000 g ai/ha, scale 0 to 100 (0 no effect, 100 complete control)
# In short: as §4
# lambsquarters = assay: Test B pre-/postemergence herbicide test; assay type: in vivo, Chenopodium album; details: for Lambsquarters plant response rating (0 to 100 scale) / Plant response rating, Lambsquarters: 0 = no effect, 100 = complete control, preemergence; for Lambsquarters plant response rating: postemergence
# In short: as §2
# large crabgrass = assay: Test B pre-/postemergence herbicide test; assay type: in vivo, Digitaria sanguinalis; details: for Crabgrass, Large plant response rating (0 to 100 scale) / Plant response rating, Crabgrass, Large: 0 = no effect, 100 = complete control, preemergence; for Crabgrass, Large plant response rating: postemergence
# In short: as §2
# morningglory = assay: Test B pre-/postemergence herbicide test; assay type: in vivo, Ipomoea coccinea; details: for Morningglory plant response rating (0 to 100 scale) / Plant response rating, Morningglory: 0 = no effect, 100 = complete control, preemergence; for Morningglory plant response rating: postemergence
# In short: as §3
# velvetleaf = assay: Test B pre-/postemergence herbicide test; assay type: in vivo, Abutilon theophrasti; details: for Velvetleaf plant response rating (0 to 100 scale) / Plant response rating, Velvetleaf: 0 = no effect, 100 = complete control, preemergence; for Velvetleaf plant response rating: postemergence
# In short: as §2
# cocklebur = assay: Test B pre-/postemergence herbicide test; assay type: in vivo, Xanthium strumarium; details: for Cocklebur plant response rating: postemergence, scale 0 (no effect) to 100 (complete control)
# In short: as §3
# [6] = 125 g ai/ha, visual rating, scale 0 (no effect) to 100 (complete control)
# [7] = 500 g ai/ha, scale 0 to 100, 0 is no effect, 100 is complete control
# [8] = 125 g ai/ha, 0 = no effect, 100 = complete control, preemergence
smiles,measurement,setting,value
C=CCN(CC=C)C(=O)c1cncc(NC(=O)c2cc(C(C)(C)C)nn2CC)c1 [Compound 262],Wheat plant response rating,wheat; [6],0
same,Wheat plant response rating,wheat; [7],10
same,"Foxtail, Giant plant response rating (0 to 100 scale)",giant foxtail; 125 g ai/ha,0
same,"Plant response rating, Foxtail, Giant","giant foxtail; 500 g ai/ha, visual rating",0
same,"Foxtail, Giant plant response rating",giant foxtail; [6],10
same,"Foxtail, Giant plant response rating",giant foxtail; [7],20
same,Surinam Grass plant response rating (0 to 100 scale),Surinam grass; 125 g ai/ha,0
same,"Plant response rating, Surinam Grass","Surinam grass; 500 g ai/ha, visual rating",10
same,Surinam Grass plant response rating,Surinam grass; [6],0
same,Surinam Grass plant response rating,Surinam grass; [7],20
same,Barnyardgrass plant response rating (0 to 100 scale),barnyardgrass [1]; 125 g ai/ha,0
same,"Plant response rating, Barnyardgrass",barnyardgrass [1]; 500 g ai/ha,10
same,Barnyardgrass plant response rating,barnyardgrass [1]; 125 g ai/ha,0
same,Barnyardgrass plant response rating,barnyardgrass [1]; 500 g ai/ha,10
same,Rice plant response rating (0 to 100 scale),rice [2],0
same,"Plant response rating, Rice",rice [2],0
same,Corn plant response rating (0 to 100 scale),corn; 125 g ai/ha,0
same,"Plant response rating, Corn","corn; 500 g ai/ha, visual rating",0
same,Corn plant response rating,corn; [6],0
same,Corn plant response rating,corn; [7],20
same,Pigweed plant response rating (0 to 100 scale),pigweed; 125 g ai/ha,50
same,"Plant response rating, Pigweed","pigweed; 500 g ai/ha, visual rating",100
same,Pigweed plant response rating,pigweed; [6],70
same,Pigweed plant response rating,pigweed; [7],80
same,Rice plant response rating,rice [3],0
same,"Oat, Wild plant response rating",wild oat; [6],0
same,"Oat, Wild plant response rating",wild oat; [7],0
same,Ducksalad plant response rating,ducksalad,0
same,Blackgrass plant response rating,blackgrass; 125 g ai/ha,0
same,Blackgrass plant response rating,blackgrass; 500 g ai/ha,20
same,Barnyardgrass plant response rating,barnyardgrass [4],0
same,"Sedge, Umbrella plant response rating",[5],0
same,Lambsquarters plant response rating (0 to 100 scale),lambsquarters; 125 g ai/ha,40
same,"Plant response rating, Lambsquarters","lambsquarters; 500 g ai/ha, visual rating",90
same,Lambsquarters plant response rating,lambsquarters; [6],50
same,Lambsquarters plant response rating,lambsquarters; [7],80
same,"Crabgrass, Large plant response rating (0 to 100 scale)",large crabgrass; 125 g ai/ha,0
same,"Plant response rating, Crabgrass, Large","large crabgrass; 500 g ai/ha, visual rating",30
same,"Crabgrass, Large plant response rating",large crabgrass; [6],0
same,"Crabgrass, Large plant response rating",large crabgrass; [7],20
same,Morningglory plant response rating (0 to 100 scale),morningglory; 125 g ai/ha,0
same,"Plant response rating, Morningglory","morningglory; 500 g ai/ha, visual rating",0
same,Morningglory plant response rating,morningglory; [6],0
same,Morningglory plant response rating,morningglory; [7],0
same,Velvetleaf plant response rating (0 to 100 scale),velvetleaf; 125 g ai/ha,0
same,"Plant response rating, Velvetleaf","velvetleaf; 500 g ai/ha, visual rating",80
same,Velvetleaf plant response rating,velvetleaf; [6],20
same,Velvetleaf plant response rating,velvetleaf; [7],20
same,Cocklebur plant response rating (0 to 100 scale),cocklebur; [8],0
same,Cocklebur plant response rating,"cocklebur; 125 g ai/ha, visual rating",0
same,Cocklebur plant response rating,"cocklebur; 500 g ai/ha, visual rating",10
CCn1nc(C(C)(C)C)cc1C(=O)Nc1cccc(C(=O)N(C)OC)n1 [Compound 246],Wheat plant response rating,wheat; [6],0
same,Wheat plant response rating,wheat; [7],30
same,"Foxtail, Giant plant response rating (0 to 100 scale)",giant foxtail; 125 g ai/ha,30
same,"Plant response rating, Foxtail, Giant","giant foxtail; 500 g ai/ha, visual rating",90
same,"Foxtail, Giant plant response rating",giant foxtail; [6],30
same,"Foxtail, Giant plant response rating",giant foxtail; [7],30
same,Surinam Grass plant response rating (0 to 100 scale),Surinam grass; 125 g ai/ha,30
same,"Plant response rating, Surinam Grass","Surinam grass; 500 g ai/ha, visual rating",80
same,Surinam Grass plant response rating,Surinam grass; [6],20
same,Surinam Grass plant response rating,Surinam grass; [7],20
same,Barnyardgrass plant response rating (0 to 100 scale),barnyardgrass [1]; 125 g ai/ha,60
same,"Plant response rating, Barnyardgrass",barnyardgrass [1]; 500 g ai/ha,90
same,Barnyardgrass plant response rating,barnyardgrass [1]; 125 g ai/ha,30
same,Barnyardgrass plant response rating,barnyardgrass [1]; 500 g ai/ha,70
same,Rice plant response rating (0 to 100 scale),rice [2],40
same,"Plant response rating, Rice",rice [2],70
same,Corn plant response rating (0 to 100 scale),corn; 125 g ai/ha,0
same,"Plant response rating, Corn","corn; 500 g ai/ha, visual rating",20
same,Corn plant response rating,corn; [6],0
same,Corn plant response rating,corn; [7],10
same,Pigweed plant response rating (0 to 100 scale),pigweed; 125 g ai/ha,100
same,"Plant response rating, Pigweed","pigweed; 500 g ai/ha, visual rating",100
same,Pigweed plant response rating,pigweed; [6],50
same,Pigweed plant response rating,pigweed; [7],60
same,Rice plant response rating,rice [3],60
same,"Oat, Wild plant response rating",wild oat; [6],10
same,"Oat, Wild plant response rating",wild oat; [7],20
same,Ducksalad plant response rating,ducksalad,50
same,Blackgrass plant response rating,blackgrass; 125 g ai/ha,0
same,Blackgrass plant response rating,blackgrass; 500 g ai/ha,0
same,Barnyardgrass plant response rating,barnyardgrass [4],50
same,"Sedge, Umbrella plant response rating",[5],50
same,Lambsquarters plant response rating (0 to 100 scale),lambsquarters; 125 g ai/ha,70
same,"Plant response rating, Lambsquarters","lambsquarters; 500 g ai/ha, visual rating",100
same,Lambsquarters plant response rating,lambsquarters; [6],50
same,Lambsquarters plant response rating,lambsquarters; [7],70
same,"Crabgrass, Large plant response rating (0 to 100 scale)",large crabgrass; 125 g ai/ha,70
same,"Plant response rating, Crabgrass, Large","large crabgrass; 500 g ai/ha, visual rating",100
same,"Crabgrass, Large plant response rating",large crabgrass; [6],10
same,"Crabgrass, Large plant response rating",large crabgrass; [7],20
same,Morningglory plant response rating (0 to 100 scale),morningglory; 125 g ai/ha,0
same,"Plant response rating, Morningglory","morningglory; 500 g ai/ha, visual rating",10
same,Morningglory plant response rating,morningglory; [6],0
same,Morningglory plant response rating,morningglory; [7],10
same,Velvetleaf plant response rating (0 to 100 scale),velvetleaf; 125 g ai/ha,60
same,"Plant response rating, Velvetleaf","velvetleaf; 500 g ai/ha, visual rating",90
same,Velvetleaf plant response rating,velvetleaf; [6],30
same,Velvetleaf plant response rating,velvetleaf; [7],60
same,Cocklebur plant response rating (0 to 100 scale),cocklebur; [8],0
same,"Plant response rating, Cocklebur","cocklebur; 500 g ai/ha, visual rating, 0 = no effect, 100 = complete control, preemergence",0
same,Cocklebur plant response rating,"cocklebur; 125 g ai/ha, visual rating",20
same,Cocklebur plant response rating,"cocklebur; 500 g ai/ha, visual rating",30
